In patent publication US20240327359A1, “3-ISOXAZOLIDINONE COMPOUND, PREPARATION METHOD, HERBICIDAL COMPOSITION AND APPLICATION THEREOF” (QINGDAO KINGAGROOT CHEMICAL COMPOUND CO., LTD., priority 2021, published 2024):

Assays:
Assay type in all cases: in vivo
[1] = tested on: wheat; assay: Post-emergence stage, crop damage; conditions: 720 g a.i./ha, 3 weeks after application
From the text: (§1) The activity level criteria for plant damage (i.e., growth control rate) are as follows:
(§2) The above growth control rates are fresh weight control rates.
(§3) Monocotyledonous and dicotyledonous weed seeds (Descurainia sophia, Capsella bursa-pastoris, Abutilon theophrasti, Galium aparine, Stellaria media, Lithospermum arvense, Rorippa indica, Alopecurus aequalis, Alopecurus japonicus, Eleusine indica, Beckmannia syzigachne, Sclerochloa dura, Phleum paniculatum, Veronica didyma, Bromus japonicus, Aegilops tauschii, Phalaris arundinacea, Amaranthus retroflexus, Chenopodiaceae, Commelina communis, Sonchus arvensis, Convolvulus arvensis, Cirsium setosum, Solanumnigrum, Acalypha australis, Digitaria sanguinalis, Echinochloa crusgalli, Setaria viridis, Setaria glauca, Leptochloa chinensis, Monochoria vaginalis, Sagittaria trifolia, Scirpus juncoides, Cyperus rotundus, Cyperus iria, Cyperus difformis, Fimbristylis, Portulaca oleracea, Xanthium sibiricum, Pharbitis nil, Conyza Canadensis, etc.) and major crop seeds (wheat, corn, rice, soybean, cotton, oilseed rape, millet, sorghum, potato, sesame, ricinus, etc.) were placed in plastic pots filled with soil, then covered with 0.5-2 cm of soil, allowed to grow in a good greenhouse environment. Two weeks after sowing, the test plants were treated in the 2-3 leaf stage. The tested compounds of the present invention were respectively dissolved in acetone, then added with Tween 80 and 1.5 liter/ha of emulsifiable concentrate of methyl oleate as synergist, diluted with a certain amount of water to obtain a solution of a certain concentration, and sprayed by a spray tower onto the plants. After the application, the plants were cultured for 3 weeks in the greenhouse, and then the experimental results of the weeding were recorded. The doses of the used compounds were 45, 90, 180, 360, 720 g a.i./ha, and the averages were obtained from three replicates.

[2] = tested on: rice; assay: Post-emergence stage, crop damage; conditions: 720 g a.i./ha, 3 weeks after application
From the text: as §1, §2, §3

[3] = tested on: weeds; assay: Activity test of the compositions, soil sealing treatment
How it was run: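 Pre-emergence soil spray at 450 kg/ha, 0.3 MPa, applied 72 h after sowing pre-germinated seeds, 20 seeds per pot, 4 pots, 4 repeats; actives in acetone diluted with 0.10% Tween-80. Greenhouse, 20 to 30° C; surviving weed fresh weight measured 21 days after treatment.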

[4] = tested on: Cirsium setosum; assay: Activity test of the compositions, post-emergence treatment by foliage spray; conditions: foliage (F), A 32 g a.i./mu
[5] = tested on: Echinochloa crusgalli; assay: as above; conditions: foliage (F), A 16 g a.i./mu
[6] = tested on: Echinochloa crus-galli var. zelayensis; assay: as above; conditions: Echinochloa crusgalli var. zelayensis; foliage (F); A 16 g a.i./mu
[7] = tested on: Amaranthus retroflexus; assay: as above; conditions: foliage (F)
[8] = tested on: Digitaria sanguinalis; assay: as above
[9] = tested on: Lolium multiflorum; assay: as above; conditions: foliage (F), A 16 g a.i./mu
[10] = tested on: Abutilon theophrasti; assay: Weeding effect in post-emergence stage; conditions: 720 g a.i./ha, 3 weeks after application
From the text: as §1, §2, §3

[11] = tested on: Alopecurus japonicus; assay: Weeding effect in post-emergence stage; conditions: 720 g a.i./ha, 3 weeks after application
From the text: as §1, §2, §3

[12] = tested on: Leptochloa chinensis; assay: Weeding effect in post-emergence stage; conditions: 720 g a.i./ha, 3 weeks after application
From the text: as §1, §2, §3

[13] = tested on: Digitaria sanguinalis; assay: Weeding effect in post-emergence stage; conditions: 720 g a.i./ha, 3 weeks after application
From the text: as §1, §2, §3

How did the “plant damage level (growth control rate) on crop, post-emergence stage” value [1] turn out when `CC1(C)CON(Cc2ccc(Cl)cc2Br)C1=O` [Compound 1] was run?
The value was 1 (Level 1: growth control rate is greater than or equal to 5% and less than 20%).

What about the “plant damage level (growth control rate) on crop, post-emergence stage” value [2] of the same compound?
The value was 1 (Level 1: growth control rate is greater than or equal to 5% and less than 20%).

What about the “Control effect (%) of A applied alone (A)” value (“Control effect (%)” below) ([3]; Alopecurus japonicus, soil (S), A 8 g a.i./mu) of the same compound?
Its value is 39.4%.

What about the “Control effect (%)” value ([3]; Amaranthus retroflexus, soil (S), A 8 g a.i./mu) of the same compound?
Its value is 37.3%.

And the “Control effect (%)” value ([3]; Commelina communis, soil (S), A 8 g a.i./mu)?
Its value is 44.1%.

And the “Control effect (%)” value ([3]; Cyperus difformis, soil (S), A 8 g a.i./mu)?
The value was 34.5%.

And the “Control effect (%)” value ([3]; Digitaria sanguinalis, soil (S), A 8 g a.i./mu)?
The value was 40.3%.

And the “Control effect (%)” value ([3]; Echinochloa crusgalli, soil (S), A 8 g a.i./mu)?
The value was 50.7%.

And the “Control effect (%)” value ([3]; Echinochloa crusgalli, soil treatment (S), A at 8 g a.i./mu, fresh weight inhibition 21 days after treatment)?
Its value is 50.7%.

What about the “Control effect (%)” value ([3]; Galium aparine, soil (S), A 8 g a.i./mu) of the same compound?
The value was 37.2%.

What about the “Control effect (%)” value ([3]; Lolium multiflorum, soil (S), A 8 g a.i./mu) of the same compound?
The value was 53.2%.

What about the “Control effect (%)” value ([3]; Potamogeton distinctus, soil (S), A 8 g a.i./mu) of the same compound?
Its value is 35.9%.

And the “Control effect (%)” value ([3]; Veronica didyma, soil (S), A 8 g a.i./mu)?
The value was 48.9%.

What about the “Control effect (%)” value [4] of the same compound?
The value was 64.2%.

And the “Control effect (%)” value [5]?
The value was 46.2%.

And the “Control effect (%)” value [6]?
Its value is 43.6%.

And the “Control effect (%)” value ([7]; A 8 g a.i./mu)?
The value was 36.7%.

What about the “Control effect (%)” value ([7]; A 16 g a.i./mu) of the same compound?
Its value is 36.7%.

What about the “Control effect (%)” value ([8]; foliage (F), A 16 g a.i./mu) of the same compound?
The value was 42.3%.

And the “Control effect (%)” value ([8]; foliage treatment (F), A at 16 g a.i./mu, fresh weight inhibition 21 days after treatment)?
Its value is 42.3%.

And the “Control effect (%)” value [9]?
Its value is 56.7%.

And the “weeding effect in post-emergence stage, activity level (growth control rate)” value (“weeding effect in post-emergence stage” below) [10]?
Its value is 5 (Level 5: growth control rate is greater than or equal to 85%).

And the “weeding effect in post-emergence stage” value [11]?
The value was 4 (Level 4: growth control rate is greater than or equal to 60% and less than 85%).

And the “weeding effect in post-emergence stage” value [12]?
The value was 5 (Level 5: growth control rate is greater than or equal to 85%).

What about the “weeding effect in post-emergence stage” value [13] of the same compound?
The value was 5 (Level 5: growth control rate is greater than or equal to 85%).
